Data: paper PMC2810227, “3-O-Methylfunicone, a Selective Inhibitor of Mammalian Y-Family DNA Polymerases from an Australian Sea Salt Fungal Strain” (Marine Drugs, 2009)

What was measured:
human pol δ = target: T1, human pol δ (Homo sapiens, UniProt P28340); experiment: DNA polymerase assay, pol δ; type: biochemical; settings: 100 μM
T1 construct: purified by nuclear fractionation of human peripheral blood cancer cells (Molt-4); endogenous in cells; host or cells: Molt-4
Text: (§1) Pol α was purified from calf thymus by immuno-affinity column chromatography, as described by Tamai et al.. Recombinant rat pol β was purified from E. coli JMpβ5, as described by Date et al.. The human pol γ catalytic gene was cloned into pFastBac. Histidine-tagged enzyme was expressed using the BAC-TO-BAC HT Baculovirus Expression System according to the supplier’s manual (Life Technologies, MD, USA) and purified using ProBoundresin (Invitrogen Japan, Tokyo, Japan). Human pols δ and ɛ were purified by nuclear fractionation of human peripheral blood cancer cells (Molt-4) using the second subunit of pols δ and ɛ-conjugated affinity column chromatography, respectively. A truncated form of human pol η (residues 1–511) tagged with His6 at its C-terminal was expressed in E. coli cells and purified as described by Kusumoto et al.. A recombinant mouse pol ι tagged with His6 at its C-terminal was expressed and purified by Ni-NTA column chromatography as described elsewhere (Masutani et al., in preparation). […]
(§2) The compounds were dissolved in distilled dimethyl sulfoxide (DMSO) at various concentrations and sonicated for 30 sec. […] Activity without the inhibitor was considered 100%, and the remaining activity at each concentration of the inhibitor was determined relative to this value. […]

rice pol λ = target: T2, rice pol λ (Oryza sativa subsp. japonica, UniProt Q67VC8); experiment: DNA polymerase assay, plant pol λ; type: biochemical, rice (Oryza sativa L. cv. Nipponbare); settings: 100 μM
T2 construct: His; made in house
T2 sequence (Q67VC8 whole entry): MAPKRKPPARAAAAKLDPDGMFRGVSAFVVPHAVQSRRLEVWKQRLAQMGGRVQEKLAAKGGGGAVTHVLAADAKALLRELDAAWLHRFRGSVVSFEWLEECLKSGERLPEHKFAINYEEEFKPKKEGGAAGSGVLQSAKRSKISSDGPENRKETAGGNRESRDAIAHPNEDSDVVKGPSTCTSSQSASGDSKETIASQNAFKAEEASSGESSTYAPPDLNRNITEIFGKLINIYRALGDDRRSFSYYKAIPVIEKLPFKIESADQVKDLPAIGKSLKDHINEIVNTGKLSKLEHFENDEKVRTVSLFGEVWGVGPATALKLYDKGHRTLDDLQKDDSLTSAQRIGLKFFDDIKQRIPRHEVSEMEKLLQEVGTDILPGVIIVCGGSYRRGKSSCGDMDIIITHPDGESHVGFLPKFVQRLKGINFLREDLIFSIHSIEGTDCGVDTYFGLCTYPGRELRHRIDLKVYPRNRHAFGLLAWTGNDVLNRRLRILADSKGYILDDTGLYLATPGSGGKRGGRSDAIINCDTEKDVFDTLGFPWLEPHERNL
Text: as §1, §2

[1] = target: mouse inosine 5′-monophosphate (IMP) dehydrogenase (type II) (Mus musculus, UniProt P24547); experiment: IMP dehydrogenase assay; type: biochemical; settings: 100 μM
mouse inosine 5′-monophosphate (IMP) dehydrogenase (type II), sequence (P24547 whole entry): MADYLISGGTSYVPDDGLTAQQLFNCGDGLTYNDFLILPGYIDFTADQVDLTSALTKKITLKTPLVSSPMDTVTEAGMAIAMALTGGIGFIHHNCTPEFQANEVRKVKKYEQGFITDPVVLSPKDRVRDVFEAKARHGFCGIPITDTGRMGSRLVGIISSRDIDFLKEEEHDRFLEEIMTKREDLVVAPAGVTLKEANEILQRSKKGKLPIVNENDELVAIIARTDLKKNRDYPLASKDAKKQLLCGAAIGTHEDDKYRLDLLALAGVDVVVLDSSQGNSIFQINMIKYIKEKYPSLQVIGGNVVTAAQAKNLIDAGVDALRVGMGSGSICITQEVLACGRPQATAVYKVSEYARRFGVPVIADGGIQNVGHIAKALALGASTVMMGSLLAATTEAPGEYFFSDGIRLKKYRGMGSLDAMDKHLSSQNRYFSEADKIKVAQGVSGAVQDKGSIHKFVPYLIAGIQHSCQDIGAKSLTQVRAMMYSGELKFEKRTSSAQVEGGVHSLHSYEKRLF
Procedure: The activities of calf primase of pol α, human telomerase, T7 RNA polymerase, mouse IMP dehydrogenase, human DNA topoisomerases I and II, T4 polynucleotide kinase and bovine DNase I were measured in standard assays according to the manufacturer’s specifications, as described by Tamiya-Koizumi et al., Oda et al., Nakayama et al., Mizushina et al., Ishimaru et al., Soltis et al. and Lu et al., respectively.

[2] = tested on: HUVEC (human umbilical vein endothelial cells); experiment: Proliferation and growth of normal cells, HUVEC; type: cell-based; settings: data not shown
rat pol β = target: T3, rat pol β (Rattus norvegicus, UniProt P06766); experiment: DNA polymerase assay, pol β; type: biochemical; settings: 100 μM
T3 construct: made in house; host or cells: E. coli JMpβ5
Text: as §1, §2

[3] = tested on: HDF (human dermal fibroblast); experiment: Proliferation and growth of normal cells, HDF; type: cell-based; settings: data not shown
UV-treated HeLa cells = experiment: UV-treated clonogenic assay; type: cell-based, human; settings: 10 J/m^2 UV
Procedure: Figure 5. (A) Human cancer cell growth inhibition dose-response curves of 3-O-methyl-funicone (1). Various concentrations (0 to 150 μM) of compound 1 were incubated with human colon carcinoma (HCT116) cells (circle) and human cervix carcinoma (HeLa) cells (square) for 24 h. Rate of cell growth was determined by MTT assay as described in the Experimental section. Data are shown as the means ± SEM of five independent experiments. (B) Clonogenic survival of UV-treated HeLa cells by compound 1. Various concentrations (0 to 100 μM) of compound 1 were incubated with 10 J/m^2 UV-treated (closed circle) or untreated (open circle) HeLa cells. After 7 days, the number of colonies in each treatment group was counted. Values are the means ± SEM of two independent experiments.
For clonogenic assay, 600 cells of HeLa were seeded on 10-cm plates and allowed to grow for 24 h before 10 J/m^2 UV irradiation treatment. The cells were then treated with various concentrations of compound 1 for 24 h. The cells were then washed with PBS and fresh medium was added for an additional 7-day incubation in a humidified 10% CO2 incubator at 37 °C. […] The number of colonies in each treatment group was counted, and the cell survival data were presented as percentage of the colony numbers of treated/untreated cells.

T1 sequence (P28340 whole entry): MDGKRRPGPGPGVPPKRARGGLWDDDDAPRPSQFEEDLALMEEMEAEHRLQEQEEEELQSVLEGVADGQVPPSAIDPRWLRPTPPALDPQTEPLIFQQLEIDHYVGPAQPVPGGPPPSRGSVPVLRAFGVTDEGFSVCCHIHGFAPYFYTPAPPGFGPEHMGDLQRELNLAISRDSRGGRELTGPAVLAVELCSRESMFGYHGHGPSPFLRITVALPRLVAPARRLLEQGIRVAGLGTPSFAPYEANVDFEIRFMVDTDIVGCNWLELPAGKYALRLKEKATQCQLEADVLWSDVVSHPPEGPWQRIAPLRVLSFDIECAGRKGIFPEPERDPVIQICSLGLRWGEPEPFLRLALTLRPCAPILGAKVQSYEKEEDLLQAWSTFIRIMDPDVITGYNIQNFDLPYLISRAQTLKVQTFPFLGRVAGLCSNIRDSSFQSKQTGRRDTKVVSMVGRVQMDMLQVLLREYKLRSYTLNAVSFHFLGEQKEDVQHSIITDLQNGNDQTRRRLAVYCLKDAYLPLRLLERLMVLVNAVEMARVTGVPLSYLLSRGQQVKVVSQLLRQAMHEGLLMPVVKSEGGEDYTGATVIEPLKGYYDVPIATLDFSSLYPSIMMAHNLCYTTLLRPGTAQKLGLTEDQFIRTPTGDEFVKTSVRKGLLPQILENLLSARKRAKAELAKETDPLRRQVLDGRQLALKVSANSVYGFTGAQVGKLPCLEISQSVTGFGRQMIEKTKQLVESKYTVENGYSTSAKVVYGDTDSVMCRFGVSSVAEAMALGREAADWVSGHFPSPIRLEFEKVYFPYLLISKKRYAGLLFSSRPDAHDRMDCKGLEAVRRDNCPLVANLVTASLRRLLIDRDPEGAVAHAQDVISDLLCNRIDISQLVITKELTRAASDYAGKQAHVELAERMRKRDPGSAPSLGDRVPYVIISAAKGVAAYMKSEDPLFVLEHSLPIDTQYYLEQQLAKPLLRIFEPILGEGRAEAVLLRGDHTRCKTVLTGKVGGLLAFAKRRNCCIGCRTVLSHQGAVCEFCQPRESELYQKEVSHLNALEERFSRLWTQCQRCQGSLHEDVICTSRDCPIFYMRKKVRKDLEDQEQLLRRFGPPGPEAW

C/C=C/c1occ(C(=O)c2c(OC)cc(OC)cc2C(=O)OC)c(=O)c1OC [compound 1, 3-O-methylfunicone]
effect on pol δ activity (human pol δ): hardly influenced | effect on rice pol λ activity (rice pol λ): no effect | effect on mouse IMP dehydrogenase (type II) activity [1]: did not influence | effect on cell proliferation and growth [2]: did not influence | effect on pol β activity (rat pol β): hardly influenced | effect on cell proliferation and growth [3]: did not influence | inhibiting clonogenic survival effect on UV exposed cells versus non-exposed cells (UV-treated HeLa cells; 100 μM, HeLa, 7 days): 4.3 fold | HeLa cell UV-sensitivity (UV-treated HeLa cells; 0 to 100 μM): significantly enhanced
